Legend:
[1] = tested on: melanoma B16; assay: Antitumor activity in the mouse melanoma B16 model; format: in vivo, C57BL/6 mice; conditions: for Inhibition of tumor growth: day 21
Description: (§1) Experimental procedures. Briefly, suspension of lymphoma EL-4 or melanoma B16 cells (10^6 cells) was injected subcutaneously into the footpad of C57BL/6 mice. Then mice underwent course of C7H15MDP treatment. Solution of the preparation in phosphate buffer saline (PBS) was administered i.v. or p.o. Single dosage for p.o. administration was of 1 mg/kg in weight, and of 0.5 mg/kg in weight when administered i.v. The preparation was administered twice a week during 3 weeks, beginning immediately after implantation of tumor cells. Besides, some tumor-bearing mice were treated with the preparation encapsulated in liposomes consisting of phosphatidylcholine:phosphatudylserine mixture (7:3).
(§2) Liposomal C7H15MDP in dose of 0.25 mg/kg was administered i.v. by the same schedule that was used with unencapsulated preparation.
(§3) Control mice were treated with PBS without active compound.
(§4) Antitumor effect was estimated using the following criteria: (1) prolongation of life-span, (2) inhibition of tumor growth.

[2] = tested on: IL-1; assay: IL-1 production by peritoneal macrophages, read out by thymocyte proliferation; format: cell-based, C57BL/6 mouse; conditions: control 1.3±0.4
Text: (§5) Each value in the table is the mean ± S.D. of three independent experiments.

[3] = cholesterol/phosphatidylcholine model lipid membrane
[4] = tested on: lymphocytes in a mixed lymphocyte culture (MLC); assay: Proliferation of lymphocytes in a mixed lymphocyte culture (MLC); format: cell-based; conditions: mean ± S.D. of six experiments, control 11.9±0.9
Text: Each value in the table is the mean index of proliferation stimulation of lymphocytes in MLC ± S.D. of six independent experiments.

[5] = tested on: lymphoma EL-4; assay: Antitumor activity in the mouse lymphoma EL-4 model; format: in vivo, C57BL/6 mice; conditions: for Inhibition of tumor growth: day 21
Description: as §1, §2, §3, §4

[6] = tested on: lymphoma EL-4 or melanoma B16; assay: Further antitumor trials in tumor-bearing mice (tumor type not specified); format: in vivo, C57BL/6 mice; conditions: treatment begun 1 week before tumor implantation
Description: as §1, with “Then mice underwent course of C7H15MDP treatment.” left out, “The preparation was administered twice a week during 3 weeks, beginning immediately after implantation of tumor cells.” left out
as §2
However, all methods of administration (p.o., i.v., liposomal i.v.) seem to be rational. Exact administration method is to be defined individually taking into account localization and type of tumor and other factors.

[7] = tested on: mouse splenocytes; assay: LPS-induced proliferation of mouse splenocytes; format: cell-based; conditions: LPS stimulation 1 µg/ml, mean ± S.D. of three experiments, control 3.4±0.2
Description: Each value in the table is the index of proliferation of lymphocytes in response to stimulation of 1 µg/ml under the influence of MDP derivatives (arithmetical mean ± S.D. of three independent experiments).

[8] = tested on: TNF; assay: TNF production by peritoneal macrophages, read out by lysis of L929 cells; format: cell-based, C57BL/6 mouse; conditions: control 7±6
Text: as §5

[9] = Distribution of 14C-labelled preparations in the water/chloroform model membrane; format: physicochemical
Text: Marked differences in distribution of 14C-labelled preparations in the phases of this model "membrane" have been found. 64% of C7H15MDP was included in the water phase, and 36% of the preparation in the organic phase. At the same time, the water phase included only 28% of its lipophilic homologue, and the organic phase 72%.

[10] = tested on: human erythroleukemia K562 cells
[11] = i.v., 0.5 mg/kg twice a week during 3 weeks
[12] = p.o., 1 mg/kg twice a week during 3 weeks

Compound | Proliferation of tymocytes cultured with samples of IL-1 (index of proliferation) ([2]; 5 µM) | Proliferation of tymocytes cultured with samples of IL-1 (index of proliferation) ([2]; 10 µM) | Proliferation of tymocytes cultured with samples of IL-1 (index of proliferation) ([2]; 20 µM) | time at which the preparation appeared in the second water phase [3] | mean index of proliferation stimulation of lymphocytes in MLC ([4]; 5 µM) | mean index of proliferation stimulation of lymphocytes in MLC ([4]; 10 µM) | mean index of proliferation stimulation of lymphocytes in MLC ([4]; 20 µM) | index of proliferation of lymphocytes ([7]; 5 µM) | index of proliferation of lymphocytes ([7]; 10 µM) | index of proliferation of lymphocytes ([7]; 20 µM) | Cytosis of L929 cells by samples of TNF ([8]; 5 µM) | Cytosis of L929 cells by samples of TNF ([8]; 10 µM) | Cytosis of L929 cells by samples of TNF ([8]; 20 µM) | share of preparation included in the organic phase [9] | share of preparation included in the water phase [9] | other results
CCCCCCCO[C@@H]1O[C@H](CO)[C@@H](O)[C@H](O[C@H](C)C(=O)N[C@@H](C)C(=O)N[C@H](CCC(=O)O)C(N)=O)[C@H]1NC(C)=O [C7H15MDP, β-heptylglycoside-MDP] | 3.8±0.2 | 3.9±0.2 | 4.8±0.2 | 24 h | 14.5±0.9 | 16.4±0.6 | 15.9±1.4 | 4.4±0.3 | 4.6±0.3 | 4.4±0.3 | 41±2% | 57±8% | 62±5% | 36% | 64% | Prolongation of life-span [1, 11]: 101%; Mean life-span ([1]; i.v., 0.5 mg/kg twice a week during 3 weeks, control (PBS i.v.) 36±3): 74 ± 9 days; Tumor node volume at the day 21 after tumor inoculation ([1]; i.v., 0.5 mg/kg, control (PBS i.v.) 736±51): 494±49 mm^3; Inhibition of tumor growth ([1]; i.v., 0.5 mg/kg): 33%; Prolongation of life-span [1, 12]: 70%; Mean life-span ([1]; p.o., 1 mg/kg twice a week during 3 weeks, control (PBS p.o.) 30±4): 51 ± 5 days; Tumor node volume at the day 21 after tumor inoculation ([1]; p.o., 1 mg/kg, control (PBS p.o.) 765±69): 571±65 mm^3; Inhibition of tumor growth ([1]; p.o., 1 mg/kg): 25%; time to reach a state of equilibrium between concentrations in water phases from both sides of the model membrane ([3]; first to reach equilibrium): 72 h; Prolongation of life-span [5, 11]: 62%; Mean life-span ([5]; i.v., 0.5 mg/kg twice a week during 3 weeks, control (PBS i.v.) 39±4): 63 ± 5 days; Tumor node volume at the day 21 after tumor inoculation ([5]; i.v., 0.5 mg/kg, control (PBS i.v.) 789±64): 463±52 mm^3; Inhibition of tumor growth ([5]; i.v., 0.5 mg/kg): 41%; Prolongation of life-span [5, 12]: 19%; Mean life-span ([5]; p.o., 1 mg/kg twice a week during 3 weeks, control (PBS p.o.) 42±6): 50 ± 7 days; Tumor node volume at the day 21 after tumor inoculation ([5]; p.o., 1 mg/kg, control (PBS p.o.) 842±78): 650±73 mm^3; Inhibition of tumor growth ([5]; p.o., 1 mg/kg): 23%; tumor regression [6]: complete regression of tumor was observed in several cases
CCCCCCCCCCCCCCCCO[C@@H]1O[C@H](CO)[C@@H](O)[C@H](O[C@H](C)C(=O)N[C@@H](C)C(=O)N[C@H](CCC(=O)O)C(N)=O)[C@H]1NC(C)=O [C16H33MDP, β-hexadecylglycoside-MDP] | 3.8±0.1 | 3.9±0.4 | 3.9±0.1 | 1 h | 9.5±1.2 | 7.7±0.4 | 5.9±0.8 | 3.0±0.1 | 2.6±0.3 | 3.0±1.0 | 36±15% | 40±16% | 47±10% | 72% | 28% | time at which concentration in the second water phase became significant [3]: 6 h; binding to the cells, more intensive than amphiphilic homologue [10]: 50%; time at which cell-associated radioactivity entered the plateau stage [10]: 2 h

From patent publication EP1038532A1, “IMMUNOMODULATOR AND PHARMACEUTICAL COMPOSITIONS WITH ANTITUMOR PROPERTIES, AND A FOOD ADDITIVE” (Kaljuzhin, Oleg Vitallievich, priority 1997, dated 1998)
